Experimental data reported in the NIST ThermoML archive (doi:10.1016/j.jct.2010.09.006).

Test: cn = amount concentration of the nth substance listed, in mol/dm3
Conditions: 101 kPa, Liquid, Taylor dispersion method

## [Cl][Ni][Cl] [nickel chloride (NiCl2)] + O
298.15 K, c1 = 0
  binary diffusion coefficient: 1.26e-09 m2/s
298.15 K, c1 = 0.001
  binary diffusion coefficient: 1.23e-09 m2/s
298.15 K, c1 = 0.005
  binary diffusion coefficient: 1.12e-09 m2/s
298.15 K, c1 = 0.01
  binary diffusion coefficient: 1.04e-09 m2/s
298.15 K, c1 = 0.1
  binary diffusion coefficient: 9.86e-10 m2/s
310.15 K, c1 = 0
  binary diffusion coefficient: 1.4e-09 m2/s
310.15 K, c1 = 0.001
  binary diffusion coefficient: 1.39e-09 m2/s
310.15 K, c1 = 0.005
  binary diffusion coefficient: 1.37e-09 m2/s
310.15 K, c1 = 0.01
  binary diffusion coefficient: 1.34e-09 m2/s
310.15 K, c1 = 0.1
  binary diffusion coefficient: 1.29e-09 m2/s
